Reference: ChEMBL document CHEMBL4673289, “Design, synthesis and biological evaluation of imidazolopyridone derivatives as novel BRD4 inhibitors” (Bioorg Med Chem, 2021)
Activity calls are given as the source filed them. No cut-off for these calls is given here.

How the values were obtained:
BXPC-3 [1] = assay: Cell cycle arrest in human BXPC-3 cells assessed as acumulation at G0/G1 phase by measuring downregulation of CyclinE1 at 4 to 16 uM measured after 48 hrs by Western blot analysis; assay type: functional, cell-based; settings: dose 4-16 µM
SMMC-7721 = assay: Antiproliferative activity against human SMMC-7721 cells assessed as cell growth inhibition at 2 uM measured after 48 to 72 hrs by MTT assay relative to control; assay type: functional; settings: time 48-72 hrs, read-out: GI
BXPC-3 [2] = assay: Antiproliferative activity against human BXPC-3 cells assessed as cell growth inhibition at 2 uM measured after 48 to 72 hrs by MTT assay relative to control; assay type: functional; settings: time 48-72 hrs, read-out: GI
PANC-1 = assay: Antiproliferative activity against human PANC-1 cells assessed as cell growth inhibition at 2 uM measured after 48 to 72 hrs by MTT assay relative to control; assay type: functional; settings: time 48-72 hrs, read-out: GI
BXPC-3 [3] = assay: Antiproliferative activity against human BXPC-3 cells assessed as cell growth inhibition measured after 48 to 72 hrs by MTT assay; assay type: functional, cell-based; settings: dose 2-32 µM, time 48-72 hrs
BXPC-3 [4] = assay: Anticlonogenic activity against human BXPC-3 cells assessed as reduction in colony formation at 0.25 umol/L incubated for 10 days by crystal violet staining based assay; assay type: functional, cell-based; settings: dose 0.25 µmol/L, time 10.0 day
BXPC-3 [5] = assay: Inhibition of BRD4 protein expression in human BXPC-3 cells at 4 to 16 uM measured after 48 hrs by Western blot analysis; assay type: functional, cell-based; settings: dose 4-16 µM
[6] = target: Bromodomain-containing protein 4 (Homo sapiens, UniProt O60885); assay: Inhibition of BRD4 in human BXPC-3 cells assessed as blocking of BRD4-pTEFB interaction; assay type: cell-based
BXPC-3 [7] = assay: Cell cycle arrest in human BXPC-3 cells assessed as accumulation at G0/G1 phase measured after 48 hrs by AnnexinV-FITC/propidium iodide staining based flow cytometry; assay type: functional; settings: dose 4-16 µM
BXPC-3 [8] = assay: Cell cycle arrest in human BXPC-3 cells assessed as decrease in cell population at G2/M phase at 4 to 16 uM measured after 48 hrs by AnnexinV-FITC/propidium iodide staining based flow cytometry; assay type: functional; settings: dose 4-16 µM
BXPC-3 [9] = assay: Cell cycle arrest in human BXPC-3 cells assessed as accumulation at G1/S phase by measuring upregulation of Rb at 4 to 16 uM measured after 48 hrs by Western blot analysis; assay type: functional, cell-based; settings: dose 4-16 µM
BXPC-3 [10] = assay: Cell cycle arrest in human BXPC-3 cells assessed as accumulation at G1/S phase by measuring upregulation of p57 measured after 48 hrs by Western blot analysis; assay type: functional, cell-based; settings: dose 4-16 µM
BXPC-3 [11] = assay: Cell cycle arrest in human BXPC-3 cells assessed as acumulation at G0/G1 phase by measuring upregulation of p27 at 4 to 16 uM measured after 48 hrs by Western blot analysis; assay type: functional, cell-based; settings: dose 4-16 µM
BXPC-3 [12] = assay: Cell cycle arrest in human BXPC-3 cells assessed as acumulation at G0/G1 phase by measuring downregulation of CDK2 at 4 to 16 uM measured after 48 hrs by Western blot analysis; assay type: functional, cell-based; settings: dose 4-16 µM
BXPC-3 [13] = assay: Cell cycle arrest in human BXPC-3 cells assessed as acumulation at G0/G1 phase by measuring downregulation of CDK4 at 4 to 16 uM measured after 48 hrs by Western blot analysis; assay type: functional, cell-based; settings: dose 4-16 µM
BXPC-3 [14] = assay: Induction of apoptosis in human BXPC-3 cells measured after 48 hrs by AnnexinV/propidium iodide staining based flow cytometry; assay type: functional, cell-based; settings: dose 4-16 µM
BXPC-3 [15] = assay: Induction of apoptosis in human BXPC-3 cells assessed as downregulation of Bcl-xl at 4 to 16 uM measured after 48 hrs by Western blot analysis; assay type: functional, cell-based; settings: dose 4-16 µM
BXPC-3 [16] = assay: Induction of apoptosis in human BXPC-3 cells assessed as activation of caspase 3 at 4 to 16 uM measured after 48 hrs by Western blot analysis; assay type: functional, cell-based; settings: dose 4-16 µM
BXPC-3 [17] = assay: Induction of apoptosis in human BXPC-3 cells assessed as increase in cytochrome C expression at 4 to 16 uM measured after 48 hrs by Western blot analysis; assay type: functional, cell-based; settings: dose 4-16 µM
BXPC-3 [18] = assay: Induction of apoptosis in human BXPC-3 cells assessed as increase in cleaved PARP expression at 4 to 16 uM measured after 48 hrs by Western blot analysis; assay type: functional, cell-based; settings: dose 4-16 µM
BXPC-3 [19] = assay: Induction of apoptosis in human BXPC-3 cells assessed as late apoptotic cells at 4 uM measured after 48 hrs by AnnexinV/propidium iodide staining based flow cytometry (reference value: 5.15 %); assay type: functional
BXPC-3 [20] = assay: Induction of apoptosis in human BXPC-3 cells assessed as early apoptotic cells at 8 uM measured after 48 hrs by AnnexinV/propidium iodide staining based flow cytometry (reference value: 1.02 %); assay type: functional
BXPC-3 [21] = assay: Induction of apoptosis in human BXPC-3 cells assessed as early apoptotic cells at 16 uM measured after 48 hrs by AnnexinV/propidium iodide staining based flow cytometry (reference value: 1.02 %); assay type: functional
BXPC-3 [22] = assay: Induction of apoptosis in human BXPC-3 cells assessed as late apoptotic cells at 16 uM measured after 48 hrs by AnnexinV/propidium iodide staining based flow cytometry (reference value: 1.02 %); assay type: functional
BXPC-3 [23] = assay: Induction of apoptotic cell death in human BXPC-3 cells at 4 to 16 uM measured after 48 hrs by Live/Dead dye based inverted fluorescence microscopic analysis; assay type: functional; settings: dose 4-16 µM
Panc02 [24] = assay: Antitumor activity against mouse Panc02 allografted in BALB/c mouse assessed as reduction in tumor weight at 50 mg/kg, ip administered every day for 20 days relative to control; assay type: functional; settings: 480 h, time 20 day, read-out: TGI
Panc02 [25] = assay: Antitumor activity against mouse Panc02 allografted in BALB/c mouse assessed as reduction in tumor weight at 50 mg/kg, ip administered every day for 20 days in combination with gemcitabine at 100 mg/kg relative to control; assay type: functional; settings: 480 h, time 20 day, read-out: TGI
[26] = Toxicity in BALB/c mouse allografted with mouse Panc02 cells assessed as effect on body weight at 50 mg/kg, ip administered every day measured after 19 days; assay type: organism-based; settings: in vivo, 456 h, time 19 day
Mus musculus [27] = assay: Decrease in c-Myc expression in BALB/c mouse allografted with mouse Panc02 cells […] at 50 mg/kg, ip administered every day measured after 20 days by immunohistochemical analysis; assay type: functional, organism-based; settings: time 20.0 day
Mus musculus [28] = assay: Decrease in c-Myc expression in BALB/c mouse allografted with mouse Panc02 cells […] at 50 mg/kg, ip administered every day in combination with gemcitabine at 100 mg/kg measured after 20 days by immunohistochemical analysis; assay type: functional, organism-based; settings: time 20.0 day
Mus musculus [29] = assay: Downregulation of Ki67 expression in BALB/c mouse allografted with mouse Panc02 cells […] at 50 mg/kg, ip administered every day measured after 20 days by immunohistochemical analysis; assay type: functional, organism-based; settings: time 20.0 day
Mus musculus [30] = assay: Downregulation of Ki67 expression in BALB/c mouse allografted with mouse Panc02 cells […] at 50 mg/kg, ip administered every day in combination with gemcitabine at 100 mg/kg measured after 20 days by immunohistochemical analysis; assay type: functional, organism-based; settings: time 20.0 day
BXPC-3 [31] = assay: Cell cycle arrest in human BXPC-3 cells assessed as acumulation at G0/G1 phase by measuring downregulation of CyclinA2 at 4 to 16 uM measured after 48 hrs by Western blot analysis; assay type: functional, cell-based; settings: dose 4-16 µM
BXPC-3 [32] = assay: Cell cycle arrest in human BXPC-3 cells assessed as acumulation at G0/G1 phase by measuring downregulation of CyclinD1 at 4 to 16 uM measured after 48 hrs by Western blot analysis; assay type: functional, cell-based; settings: dose 4-16 µM

## CCS(=O)(=O)Nc1ccc(Oc2ccccc2F)c(-c2cn(C)c(=O)c3cncn23)c1
BXPC-3 [1]
  Activity: Active
SMMC-7721
  inhibition of growth at 2 µM: 15.1%
BXPC-3 [2]
  inhibition of growth at 2 µM: 38.4%
PANC-1
  inhibition of growth at 2 µM: 16.5%
BXPC-3 [3]
  growth inhibition (GI): Dose-dependent effect
BXPC-3 [4]
  Activity: Active
BXPC-3 [5]
  inhibition: Active
[6]
  inhibition: Active
BXPC-3 [7]
  Activity: Dose-dependent effect
BXPC-3 [8]
  Activity: Active
BXPC-3 [9]
  Activity: Active
BXPC-3 [10]
  Activity: Active
BXPC-3 [11]
  Activity: Active
BXPC-3 [12]
  Activity: Active
BXPC-3 [13]
  Activity: Active
BXPC-3 [14]
  Activity: Dose-dependent effect
BXPC-3 [15]
  Activity: Active
BXPC-3 [16]
  Activity: Active
BXPC-3 [17]
  Activity: Active
BXPC-3 [18]
  Activity: Active
BXPC-3 [19]
  Activity: 8.59%
BXPC-3 [20]
  Activity: 1.61%
BXPC-3 [21]
  Activity: 2.35%
BXPC-3 [22]
  Activity: 19.21%
BXPC-3 [23]
  Activity: Active
Panc02 [24]
  inhibition in vivo at 50 mg/kg: 79%
Panc02 [25]
  inhibition in vivo at 50 mg/kg: 85%
[26]
  Activity: Non-Toxic
Mus musculus [27]
  Activity: Active
Mus musculus [28]
  Activity: Active
Mus musculus [29]
  Activity: Active
Mus musculus [30]
  Activity: Active
BXPC-3 [31]
  Activity: Active
BXPC-3 [32]
  Activity: Active
